Data: the NIST ThermoML archive (doi:10.1021/je7006549)
Numbers after ± are expanded uncertainties.

Assay: mn = molality of the nth substance listed, in mol/kg
Details: 101 kPa, Liquid

CC1=CC(=O)c2ccccc2C1=O [2-methyl-1,4-naphthalenedione] + Cc1ccccc1C
mass density (303.15 K, m1 = 0.0436): 873.9 ± 0.7 kg/m3
viscosity (303.15 K, m1 = 0.0436): 0.7432 ± 0.011 mPa·s
mass density (303.15 K, m1 = 0.0884): 875.8 ± 0.7 kg/m3
viscosity (303.15 K, m1 = 0.0884): 0.7496 ± 0.011 mPa·s
mass density (303.15 K, m1 = 0.1326): 877.7 ± 0.7 kg/m3
viscosity (303.15 K, m1 = 0.1326): 0.7581 ± 0.011 mPa·s
mass density (303.15 K, m1 = 0.1767): 879.6 ± 0.7 kg/m3
viscosity (303.15 K, m1 = 0.1767): 0.7658 ± 0.011 mPa·s
mass density (303.15 K, m1 = 0.2215): 881.6 ± 0.7 kg/m3
viscosity (303.15 K, m1 = 0.2215): 0.7765 ± 0.011 mPa·s
mass density (303.15 K, m1 = 0.2656): 883.5 ± 0.7 kg/m3
viscosity (303.15 K, m1 = 0.2656): 0.7833 ± 0.011 mPa·s
mass density (308.15 K, m1 = 0.0436): 869.5 ± 0.8 kg/m3
viscosity (308.15 K, m1 = 0.0436): 0.6988 ± 0.01 mPa·s
mass density (308.15 K, m1 = 0.0884): 871.4 ± 0.8 kg/m3
viscosity (308.15 K, m1 = 0.0884): 0.7021 ± 0.01 mPa·s
mass density (308.15 K, m1 = 0.1326): 873.3 ± 0.8 kg/m3
viscosity (308.15 K, m1 = 0.1326): 0.7081 ± 0.01 mPa·s
mass density (308.15 K, m1 = 0.1767): 875.2 ± 0.8 kg/m3
viscosity (308.15 K, m1 = 0.1767): 0.7159 ± 0.01 mPa·s
mass density (308.15 K, m1 = 0.2215): 877.2 ± 0.8 kg/m3
viscosity (308.15 K, m1 = 0.2215): 0.726 ± 0.01 mPa·s
mass density (308.15 K, m1 = 0.2656): 879.1 ± 0.8 kg/m3
viscosity (308.15 K, m1 = 0.2656): 0.7348 ± 0.011 mPa·s
mass density (313.15 K, m1 = 0.0436): 865.8 ± 0.8 kg/m3
viscosity (313.15 K, m1 = 0.0436): 0.6532 ± 0.0099 mPa·s
mass density (313.15 K, m1 = 0.0884): 867.7 ± 0.8 kg/m3
viscosity (313.15 K, m1 = 0.0884): 0.6592 ± 0.01 mPa·s
mass density (313.15 K, m1 = 0.1326): 869.6 ± 0.8 kg/m3
viscosity (313.15 K, m1 = 0.1326): 0.6687 ± 0.01 mPa·s
mass density (313.15 K, m1 = 0.1767): 871.5 ± 0.8 kg/m3
viscosity (313.15 K, m1 = 0.1767): 0.6742 ± 0.01 mPa·s
mass density (313.15 K, m1 = 0.2215): 873.5 ± 0.8 kg/m3
viscosity (313.15 K, m1 = 0.2215): 0.681 ± 0.01 mPa·s
mass density (313.15 K, m1 = 0.2656): 875.4 ± 0.8 kg/m3
viscosity (313.15 K, m1 = 0.2656): 0.6888 ± 0.01 mPa·s
mass density (318.15 K, m1 = 0.0436): 861.5 ± 0.8 kg/m3
viscosity (318.15 K, m1 = 0.0436): 0.6212 ± 0.0097 mPa·s
mass density (318.15 K, m1 = 0.0884): 863.4 ± 0.8 kg/m3
viscosity (318.15 K, m1 = 0.0884): 0.6256 ± 0.0097 mPa·s
mass density (318.15 K, m1 = 0.1326): 865.3 ± 0.8 kg/m3
viscosity (318.15 K, m1 = 0.1326): 0.6319 ± 0.0098 mPa·s
mass density (318.15 K, m1 = 0.1767): 867.2 ± 0.8 kg/m3
viscosity (318.15 K, m1 = 0.1767): 0.6407 ± 0.0098 mPa·s
mass density (318.15 K, m1 = 0.2215): 869.2 ± 0.8 kg/m3
viscosity (318.15 K, m1 = 0.2215): 0.6473 ± 0.0099 mPa·s
mass density (318.15 K, m1 = 0.2656): 871.1 ± 0.8 kg/m3
viscosity (318.15 K, m1 = 0.2656): 0.6525 ± 0.0099 mPa·s
mass density (323.15 K, m1 = 0.0436): 857.3 ± 0.8 kg/m3
viscosity (323.15 K, m1 = 0.0436): 0.5792 ± 0.0094 mPa·s
mass density (323.15 K, m1 = 0.0884): 859.2 ± 0.8 kg/m3
viscosity (323.15 K, m1 = 0.0884): 0.5832 ± 0.0094 mPa·s
mass density (323.15 K, m1 = 0.1326): 861.1 ± 0.8 kg/m3
viscosity (323.15 K, m1 = 0.1326): 0.5905 ± 0.0094 mPa·s
mass density (323.15 K, m1 = 0.1767): 863 ± 0.8 kg/m3
viscosity (323.15 K, m1 = 0.1767): 0.5967 ± 0.0095 mPa·s
mass density (323.15 K, m1 = 0.2215): 865 ± 0.8 kg/m3
viscosity (323.15 K, m1 = 0.2215): 0.6011 ± 0.0095 mPa·s
mass density (323.15 K, m1 = 0.2656): 866.9 ± 0.8 kg/m3
viscosity (323.15 K, m1 = 0.2656): 0.6087 ± 0.0096 mPa·s
mass density (328.15 K, m1 = 0.0436): 853 ± 0.9 kg/m3
viscosity (328.15 K, m1 = 0.0436): 0.5498 ± 0.0091 mPa·s
mass density (328.15 K, m1 = 0.0884): 854.9 ± 0.9 kg/m3
viscosity (328.15 K, m1 = 0.0884): 0.5531 ± 0.0092 mPa·s
mass density (328.15 K, m1 = 0.1326): 856.8 ± 0.9 kg/m3
viscosity (328.15 K, m1 = 0.1326): 0.5601 ± 0.0092 mPa·s
mass density (328.15 K, m1 = 0.1767): 858.7 ± 0.9 kg/m3
viscosity (328.15 K, m1 = 0.1767): 0.5665 ± 0.0093 mPa·s
mass density (328.15 K, m1 = 0.2215): 860.7 ± 0.9 kg/m3
viscosity (328.15 K, m1 = 0.2215): 0.5706 ± 0.0093 mPa·s
mass density (328.15 K, m1 = 0.2656): 862.6 ± 0.9 kg/m3
viscosity (328.15 K, m1 = 0.2656): 0.5773 ± 0.0093 mPa·s
mass density (333.15 K, m1 = 0.0436): 848.9 ± 0.9 kg/m3
viscosity (333.15 K, m1 = 0.0436): 0.5177 ± 0.0089 mPa·s
mass density (333.15 K, m1 = 0.0884): 850.8 ± 0.9 kg/m3
viscosity (333.15 K, m1 = 0.0884): 0.5202 ± 0.0089 mPa·s
mass density (333.15 K, m1 = 0.1326): 852.7 ± 0.9 kg/m3
viscosity (333.15 K, m1 = 0.1326): 0.5277 ± 0.009 mPa·s
mass density (333.15 K, m1 = 0.1767): 854.6 ± 0.9 kg/m3
viscosity (333.15 K, m1 = 0.1767): 0.5309 ± 0.009 mPa·s
mass density (333.15 K, m1 = 0.2215): 856.6 ± 0.9 kg/m3
viscosity (333.15 K, m1 = 0.2215): 0.5358 ± 0.009 mPa·s
mass density (333.15 K, m1 = 0.2656): 858.5 ± 0.9 kg/m3
viscosity (333.15 K, m1 = 0.2656): 0.5412 ± 0.0091 mPa·s
